Among the test systems are HT29 colon; HCC-2998 colon; A549 NSCLC; RPMI-8226 leukemia; KM12 colon; NCI-H23 lung; PC-3 prostate; MALME-3M melanoma; HOP-92 NSCLC; CCRF-CEM leukemia.
Common to all, as to assay: DTP human tumour cell line panel, 48 h

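Five compound concentrations were applied to cells in 96-well plates for 48 hours; endpoints were derived by simple linear interpolation of the resulting dose-response curve. GI50 is the concentration that inhibits growth by half. TGI is the concentration that stops growth completely.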

In the case of `CN(C)c1ccc(C(=C2C=CC(=[N+](C)C)C=C2)c2c(O)c(S(=O)(=O)[O-])cc3cc(S(=O)(=O)O)ccc23)cc1`, the concentration for total growth inhibition (TGI) in the test with HT29 colon, with HCC-2998 colon, in the test with A549 NSCLC, in the test with RPMI-8226 leukemia, in the test on KM12 colon and in the test on NCI-H23 lung was above 100 µM throughout. Besides, the concentration for total growth inhibition (TGI) in the test on PC-3 prostate, in the test with MALME-3M melanoma and with HOP-92 NSCLC was above 100 µM throughout.
For the molecule `O=C(/C=C/c1ccco1)c1ccc(Nc2ccnc3cc(Cl)ccc23)cc1`, the GI50 – broadly, the concentration that inhibits growth by half – is 3.09 µM in the test on HT29 colon; above 100 µM in the test with HCC-2998 colon; above 100 µM in the test on A549 NSCLC; 3.17 µM in the test with KM12 colon; 6.56 µM in the test with CCRF-CEM leukemia; above 100 µM in the test on NCI-H23 lung. Besides, the GI50 with PC-3 prostate is 4.99 µM; in the test with MALME-3M melanoma it was above 100 µM; with HOP-92 NSCLC, 15 µM. For the same molecule, the TGI in the test on HT29 colon, with HCC-2998 colon, in the test on A549 NSCLC, in the test with KM12 colon, in the test on CCRF-CEM leukemia and with NCI-H23 lung was above 100 µM in each case. Moreover, the total growth inhibition concentration (TGI) – broadly, the concentration at which net growth stops – with PC-3 prostate was 41.3 µM; in the test with MALME-3M melanoma it was above 100 µM; with HOP-92 NSCLC, 62 µM.
Turning to `C/C(=C/CC[C@](C)(OC1OC(CO)C(O)C(O)C1OC1OC(C)C(O)C(O)C1O)[C@H]1CC[C@]2(C)[C@@H]1CC[C@@H]1[C@@]3(C)CC[C@H](O)C(C)(C)[C@@H]3C[C@H](O)[C@]12C)CO` (stereo partly drawn), the TGI in the test with HT29 colon, with A549 NSCLC, in the test on RPMI-8226 leukemia, in the test on KM12 colon, in the test on CCRF-CEM leukemia and in the test with NCI-H23 lung was above 100 µM each time. For the same molecule, the TGI in the test on PC-3 prostate, in the test on MALME-3M melanoma and in the test with HOP-92 NSCLC was above 100 µM throughout.
For the molecule `O=C1OS2(OC(=O)c3cccc4cccc2c34)c2ccccc21` (stereo not drawn), the total growth inhibition concentration (TGI) with HT29 colon, with A549 NSCLC, with RPMI-8226 leukemia, in the test with KM12 colon, in the test on CCRF-CEM leukemia and in the test with NCI-H23 lung was above 100 µM in each case. The TGI in the test with PC-3 prostate, in the test with MALME-3M melanoma and in the test on HOP-92 NSCLC was above 100 µM each time.
For `COC12OC3(C4OC41)C(C(=O)O[C@H]3CO[Si](C)(C)C(C)(C)C)C2S(=O)(=O)c1ccccc1` (stereo partly drawn), the TGI in the test on HCC-2998 colon is above 100 µM; in the test on A549 NSCLC, above 100 µM; in the test on RPMI-8226 leukemia it was 11.7 µM; in the test with CCRF-CEM leukemia, 4.04 µM; in the test with NCI-H23 lung it was above 100 µM; in the test on PC-3 prostate, above 90.2 µM. For the same molecule, the TGI with MALME-3M melanoma was above 85.1 µM; in the test on HOP-92 NSCLC, above 100 µM.
As for `O=C(O)C(C1NCCS1)N1Cc2ccccc2C1` (stereo not drawn), the concentration for total growth inhibition (TGI) with HT29 colon, with A549 NSCLC, with RPMI-8226 leukemia, with KM12 colon, in the test with CCRF-CEM leukemia and with NCI-H23 lung was above 100 µM each time. Besides, the total growth inhibition concentration (TGI) in the test with PC-3 prostate, in the test with MALME-3M melanoma and in the test on HOP-92 NSCLC was above 100 µM each time.
Take `CS(=O)(=O)c1ccc(C2=C(c3ccccc3)C(=O)OC2)cc1`: the total growth inhibition concentration (TGI) in the test on HCC-2998 colon, in the test with A549 NSCLC, with RPMI-8226 leukemia, in the test with KM12 colon, with CCRF-CEM leukemia and in the test on NCI-H23 lung was above 100 µM in each case. Besides, the TGI with PC-3 prostate, in the test with MALME-3M melanoma and with HOP-92 NSCLC was above 100 µM each time.
On to `COc1c(Cl)ccc(Cl)c1-c1nnc(-c2c(Cl)c(Cl)c(Cl)c(Cl)c2-c2nc3ccc(C(=O)c4ccccc4)cc3[nH]2)o1`, for which the TGI was above 100 µM in the test with HT29 colon; above 100 µM with A549 NSCLC; 87.4 µM in the test with RPMI-8226 leukemia; above 100 µM in the test with KM12 colon; 91.7 µM with CCRF-CEM leukemia; above 100 µM in the test on NCI-H23 lung. Besides, the TGI in the test with PC-3 prostate, in the test with MALME-3M melanoma and in the test with HOP-92 NSCLC was above 100 µM throughout.
Turning to `COc1ccc(NC(=O)c2cc(NC(=O)/C=C/c3ccccc3)c(OC)c(OC)c2)cc1`, the TGI with HT29 colon, in the test with A549 NSCLC, in the test on RPMI-8226 leukemia, in the test with KM12 colon, with CCRF-CEM leukemia and in the test with NCI-H23 lung was above 100 µM in each case. Also, the TGI in the test with PC-3 prostate was above 100 µM; with MALME-3M melanoma, 99.6 µM; in the test with HOP-92 NSCLC it was above 100 µM.
As for `CSc1nc(NC2CC2)c2c(n1)Sc1nc3ccccc3n1N=C2`, the TGI in the test on HT29 colon is above 100 µM; with HCC-2998 colon it was above 100 µM; in the test on A549 NSCLC, 97 µM; with KM12 colon, above 100 µM; in the test with CCRF-CEM leukemia it was above 100 µM; with NCI-H23 lung, above 100 µM. Moreover, the concentration for total growth inhibition (TGI) in the test with PC-3 prostate is above 100 µM; in the test on MALME-3M melanoma, 50.9 µM; in the test on HOP-92 NSCLC, 73.9 µM.

Values taken from PubChem BioAssay (NCI).
